Experimental findings from ChEMBL document CHEMBL4033618, “Covalently linked kanamycin - Ciprofloxacin hybrid antibiotics as a tool to fight bacterial resistance” (Bioorg Med Chem, 2017) are described below.

The structures appear in SMILES notation. Converted amounts (≈) assume the structure as drawn. The source made the active and inactive calls. The calls are words filed in the database; no cut-off is given here.

Series [1] can be described thus: Inhibition of Escherichia coli topoisomerase 4 using supercoiled pBR322 DNA as substrate by agarose gel electrophorosis method.
Series [2] has as its system Escherichia coli. Put plainly: Antibacterial activity against kanamycin-resistant Escherichia coli AG100A by double microdilution method. It is filed as functional. On the technique in general: Dilution methods test growth across graded concentrations, often in twofold steps.
Series [3] relates to Staphylococcus epidermidis. Put plainly: Antibacterial activity against aminoglycosides-susceptible Staphylococcus epidermidis by double microdilution method. It is filed as functional.
Series [4] in a line: Inhibition of Escherichia coli DNA gyrase using relaxed pBR322 DNA as substrate by agarose gel electrophorosis method.
In series [5] the test system is Bacillus spizizenii. The experiment in a line: Antibacterial activity against Bacillus subtilis ATCC 6633 in 15th subculture in presence of equimolar concentration of kanamycin A by double microdilution method. In kind it is functional.
For series [6], the system named is Bacillus subtilis. Put plainly: Antibacterial activity against aminoglycosides-susceptible Bacillus subtilis by double microdilution method. In kind it is functional.
Series [7] relates to Escherichia coli. Put plainly: Inhibition of protein translation in Escherichia coli S30 cell extract using circular DNA with pBESTluc after 60 mins. It is filed as functional.
The subject of series [8] is Bacillus spizizenii. The experiment in a line: Resistance index, ratio of MIC for Bacillus subtilis ATCC 6633 in 15th subculture to MIC for Bacillus subtilis ATCC 6633 in first subculture. In kind it is functional.
In series [9] the test system is Escherichia coli. Put plainly: Ratio of MIC for aminoglycosides-resistant Escherichia coli BL21 harboring pETSACG1 encode for APH(3')-3a resistance enzyme to MIC for Escherichia coli BL21. In kind it is functional.
Series [10] has as its system Escherichia coli. The experiment in a line: Antibacterial activity against Escherichia coli BL21 by double microdilution method. It is filed as functional.
Series [11] relates to Escherichia coli. Put plainly: Ratio of MIC for aminoglycosides-resistant Escherichia coli BL21 harboring pSF815 encode for bifunctional AAC(6')/APH(2\") resistance enzyme to MIC for Escherichia coli BL21. It is filed as functional.
Series [12] concerns Escherichia coli. Put plainly: Antibacterial activity against aminoglycosides-resistant Escherichia coli BL21 harboring pETSACG1 encode for APH(3')-3a resistance enzyme by double microdilution method. In kind it is functional.
For series [13], the system named is Escherichia coli. Put plainly: Antibacterial activity against Escherichia coli XL1 blue harboring pET9d encode for APH(3')-1a resistance enzyme by double microdilution method. In kind it is functional.
Series [14] deals with Escherichia coli. The experiment in a line: Antibacterial activity against Escherichia coli XL1 blue by double microdilution method. In kind it is functional.
Series [15] has as its system Escherichia coli. The experiment in a line: Ratio of MIC for aminoglycosides-resistant Escherichia coli BL21 harboring pET11d encode for APH(3')-2b resistance enzyme to MIC for Escherichia coli BL21. In kind it is functional.
The subject of series [16] is Escherichia coli. The experiment in a line: Antibacterial activity against aminoglycosides-susceptible Escherichia coli 25922 by double microdilution method. It is filed as functional. The conditions noted are these: ATCC 25922.
Series [17] relates to Escherichia coli. Put plainly: Antibacterial activity against aminoglycosides-resistant Escherichia coli BL21 harboring pET11d encode for APH(3')-2b resistance enzyme by double microdilution method. It is filed as functional.
Series [18] has as its system Escherichia coli. The experiment in a line: Ratio of MIC for Escherichia coli XL1 blue harboring pET9d encode for APH(3')-1a resistance enzyme to MIC for Escherichia coli XL1 blue. In kind it is functional.
Series [19] deals with Escherichia coli. Put plainly: Antibacterial activity against aminoglycosides-susceptible Escherichia coli R477-100 by double microdilution method. In kind it is functional.
For series [20], the system named is Escherichia coli. The experiment in a line: Resistance index, ratio of MIC for Escherichia coli ATCC 35218 in 15th subculture to MIC for Escherichia coli ATCC 35218 in first subculture. In kind it is functional.
Series [21] deals with Escherichia coli. Put plainly: Antibacterial activity against aminoglycosides-resistant Escherichia coli BL21 harboring pSF815 encode for bifunctional AAC(6')/APH(2\") resistance enzyme by double microdilution method. It is filed as functional.
Series [22] concerns Escherichia coli. Put plainly: Antibacterial activity against kanamycin-resistant Escherichia coli AG100B by double microdilution method. It is filed as functional.
Series [23] can be described thus: Acute toxicity in iv dosed mouse at pH 6.6 administered for 4 days. In kind it is organism-based. The conditions noted are these: in vivo.
In series [24] the test system is Escherichia coli. Put plainly: Antibacterial activity against Escherichia coli ATCC 35218 in 15th subculture in presence of equimolar concentration of ciprofloxacin by double microdilution method. In kind it is functional.
The test system of series [25] is Bacillus spizizenii. Put plainly: Antibacterial activity against Bacillus subtilis ATCC 6633 in 15th subculture in presence of equimolar concentration of ciprofloxacin by double microdilution method. In kind it is functional.
Where [26] appears, read: Escherichia coli, 1 h, read-out: IC50.

Regarding `O=C(O)c1cn(C2CC2)c2cc(N3CCNCC3)c(F)cc2c1=O` [CIPROFLOXACIN], the IC50 (in general, the point on the concentration scale where inhibition reaches its midpoint) in [1] (read-out: IC50) is 8.6 µM; in series [4] (read-out: IC50) it was 1.3 µM; in series [7], “Not Active”. For the same compound, the MIC (commonly the lowest concentration found to suppress growth) in [2] was below 0.005 µg/mL; in series [3], 0.094 µg/mL (≈ 0.284 µM); in [6] it was 0.02 µg/mL (≈ 0.0604 µM). The outcome in series [5] was Active.

On to `NC[C@H]1O[C@H](O[C@H]2[C@H](O)[C@@H](O[C@H]3O[C@H](CO)[C@@H](O)[C@H](N)[C@H]3O)[C@H](NCc3cn(CC(O)CN4CCN(c5cc6c(cc5F)c(=O)c(C(=O)O)cn6C5CC5)CC4)nn3)C[C@@H]2N)[C@H](O)[C@@H](O)[C@@H]1O` (some centres undefined), for which the Ratio in [8] is listed as 2; in series [9], 1.5; in series [11], 1.5; in series [15] it was 1.5; in series [18], 1; in series [20], 1.33. The half-inhibitory concentration (IC50) turned out to be 19.8 µM in series [1] (read-out: IC50), 5.9 µM in series [4] (read-out: IC50) and 1.27 µM in series [7] (setting [26]). For the same compound, the MIC was found to be 0.09 µg/mL (≈ 0.0944 µM) in series [10]; 0.37 µg/mL (≈ 0.388 µM) in [2]; 0.3 µg/mL (≈ 0.315 µM) in series [12]; 3 µg/mL (≈ 3.15 µM) in series [13]; 3 µg/mL (≈ 3.15 µM) in series [14]; 1.5 µg/mL (≈ 1.57 µM) in [16]. Moreover, the MIC in [17] was 0.3 µg/mL (≈ 0.315 µM); in series [3], 6 µg/mL (≈ 6.3 µM); in series [6], 1.5 µg/mL (≈ 1.57 µM); in [19] it was 3 µg/mL (≈ 3.15 µM); in series [21], 0.3 µg/mL (≈ 0.315 µM); in series [22] it was 12 µg/mL (≈ 12.6 µM).

On to `NC[C@H]1O[C@H](O[C@H]2[C@H](O)[C@@H](O[C@H]3O[C@H](CO)[C@@H](O)[C@H](N)[C@H]3O)[C@H](NCc3cn(Cc4ccc(CN5CCN(c6cc7c(cc6F)c(=O)c(C(=O)O)cn7C6CC6)CC5)cc4)nn3)C[C@@H]2N)[C@H](O)[C@@H](O)[C@@H]1O`, for which the Ratio in series [8] is reported as 4; in [9], 1; in series [11], 1; in series [15] it was 1; in [18] it was 1; in [20] it was 4. Further, the IC50 in [1] (read-out: IC50) was determined as 7.9 µM; in [4] (read-out: IC50), 2.6 µM; in [7] (setting [26]), 10.7 µM. The MIC was 0.8 µg/mL (≈ 0.801 µM) in [10]; 0.28 µg/mL (≈ 0.28 µM) in series [2]; 0.1 µg/mL (≈ 0.1 µM) in [12]; 3 µg/mL (≈ 3 µM) in series [13]; 3 µg/mL (≈ 3 µM) in [14]; 6 µg/mL (≈ 6.01 µM) in series [16]. For the same compound, the MIC in series [17] is 0.1 µg/mL (≈ 0.1 µM); in [3], 3 µg/mL (≈ 3 µM); in [6], 3 µg/mL (≈ 3 µM); in series [19], 6 µg/mL (≈ 6.01 µM); in [21], 0.1 µg/mL (≈ 0.1 µM); in series [22] it was 12 µg/mL (≈ 12 µM).

For the compound `NCC[C@H](O)C(=O)N[C@@H]1C[C@H](N)[C@@H](O[C@H]2O[C@H](CN)[C@@H](O)[C@H](O)[C@H]2O)[C@H](O)[C@H]1O[C@H]1O[C@H](CO)[C@@H](O)[C@H](N)[C@H]1O` [AMIKACIN], in series [23], the LD50 – broadly, the dose at which mortality reaches 50% – at 96 h was 300 mg/kg.

For the compound `NC[C@H]1O[C@H](O[C@H]2[C@H](O)[C@@H](O[C@H]3O[C@H](CO)[C@@H](O)[C@H](N)[C@H]3O)[C@H](N)C[C@@H]2N)[C@H](O)[C@@H](O)[C@@H]1O` [KANAMYCIN], the Ratio in [8] was 15; in series [9] it was above 32; in [11], above 32; in series [15] it was above 32; in series [18], above 128; in [20], 15. The IC50 result in series [1] is “Not Active”; in [4] it was “Not Active”; in [7] (setting [26]), 0.03 µM. Besides, the result in series [24] was inactive. Moreover, the MIC in [10] was 12 µg/mL (≈ 24.8 µM); in series [2], 96 µg/mL (≈ 198 µM); in series [12], above 384 µg/mL; in series [13], above 384 µg/mL; in [14], 3 µg/mL (≈ 6.19 µM); in [16], 48 µg/mL (≈ 99.1 µM). Moreover, the MIC in series [17] was above 384 µg/mL; in series [3], 1.5 µg/mL (≈ 3.1 µM); in series [6] it was 1.5 µg/mL (≈ 3.1 µM); in series [19], 12 µg/mL (≈ 24.8 µM); in series [21] it was above 384 µg/mL; in series [22], 384 µg/mL (≈ 793 µM). Also, the result in series [25] was Active. The same compound displayed an LD50 at 96 h in [23] of 280 mg/kg.

In the case of `NC[C@@H]1O[C@H](O[C@H]2[C@@H](O)[C@H](O[C@@H]3[C@@H](O)[C@H](N)C[C@H](N)[C@H]3O[C@H]3O[C@H](CN)[C@@H](O)[C@H](O)[C@H]3N)O[C@@H]2CO)[C@H](N)[C@@H](O)[C@@H]1O` [FRAMYCETIN], in series [23], the LD50 at 96 h turned out to be 24 mg/kg.

On to `NC[C@H]1O[C@H](O[C@H]2[C@H](O)[C@@H](O[C@H]3O[C@H](CO)[C@@H](O)[C@H](N)[C@H]3O)[C@H](NC(=O)CCc3cn(CCN4CCN(c5cc6c(cc5F)c(=O)c(C(=O)O)cn6C5CC5)CC4)nn3)C[C@@H]2N)[C@H](O)[C@@H](O)[C@@H]1O`, for which the results for the IC50 in series [1] (read-out: IC50), in series [4] (read-out: IC50) and in [7] (setting [26]) were above 100 µM, 9.9 µM and 19.2 µM, respectively. For the same compound, the Ratio is on record as 3 in series [9], 2 in [11], 2 in series [15] and 1 in series [18]. Moreover, the MIC in series [10] came to 0.8 µg/mL (≈ 0.829 µM); in series [2], 0.75 µg/mL (≈ 0.777 µM); in series [12], 0.6 µg/mL (≈ 0.622 µM); in series [13], 18 µg/mL (≈ 18.7 µM); in series [14], 24 µg/mL (≈ 24.9 µM); in [16], 3 µg/mL (≈ 3.11 µM). Also, the MIC in [17] came out at 0.4 µg/mL (≈ 0.415 µM); in series [3] it was 18 µg/mL (≈ 18.7 µM); in series [6] it was 6 µg/mL (≈ 6.22 µM); in [19], 6 µg/mL (≈ 6.22 µM); in series [21], 0.4 µg/mL (≈ 0.415 µM); in series [22], 24 µg/mL (≈ 24.9 µM).
